Measured values reported in PubChem BioAssay (NCI).
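96-well plates; 48 h exposure; 5 concentrations. Endpoints by linear interpolation between flanking doses. Not reached: highest tested concentration assigned. Here, GI50 denotes the concentration required for 50% inhibition of growth. At the TGI there is no net growth.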

Legend:
Assay in all cases: NCI tumour cell line growth inhibition, 48 h
SK-OV-3 ovarian = system: SK-OV-3 ovarian
RXF 393 renal = system: RXF 393 renal
SF-539 CNS = system: SF-539 CNS
PC-3 prostate = system: PC-3 prostate
ACHN renal = system: ACHN renal
HL-60(TB) leukemia = system: HL-60(TB) leukemia
MDA-MB-435 = system: MDA-MB-435
DU-145 prostate = system: DU-145 prostate
RPMI-8226 leukemia = system: RPMI-8226 leukemia
TK-10 renal = system: TK-10 renal
NCI-H23 lung = system: NCI-H23 lung
MOLT-4 leukemia = system: MOLT-4 leukemia
HCT-116 colon = system: HCT-116 colon
A498 renal = system: A498 renal
HS 578T breast = system: HS 578T breast
BT-549 breast = system: BT-549 breast
UACC-62 melanoma = system: UACC-62 melanoma
T-47D breast = system: T-47D breast
K-562 leukemia = system: K-562 leukemia
NCI-H460 lung = system: NCI-H460 lung
IGROV1 ovarian = system: IGROV1 ovarian
NCI/ADR-RES ovarian = system: NCI/ADR-RES ovarian
MALME-3M melanoma = system: MALME-3M melanoma
SNB-19 CNS = system: SNB-19 CNS
SF-268 CNS = system: SF-268 CNS
SR leukemia = system: SR leukemia
HOP-62 NSCLC = system: HOP-62 NSCLC
OVCAR-3 ovarian = system: OVCAR-3 ovarian
OVCAR-4 ovarian = system: OVCAR-4 ovarian
HCC-2998 colon = system: HCC-2998 colon
HT29 colon = system: HT29 colon
KM12 colon = system: KM12 colon
U251 CNS = system: U251 CNS
786-0 renal = system: 786-0 renal
MDA-MB-468 breast = system: MDA-MB-468 breast
SF-295 CNS = system: SF-295 CNS
OVCAR-8 ovarian = system: OVCAR-8 ovarian
LOX IMVI melanoma = system: LOX IMVI melanoma
MCF7 breast = system: MCF7 breast
SW-620 colon = system: SW-620 colon
UACC-257 melanoma = system: UACC-257 melanoma
HOP-92 NSCLC = system: HOP-92 NSCLC
CAKI-1 renal = system: CAKI-1 renal
COLO 205 colon = system: COLO 205 colon
NCI-H226 lung = system: NCI-H226 lung
OVCAR-5 ovarian = system: OVCAR-5 ovarian
SK-MEL-28 melanoma = system: SK-MEL-28 melanoma
HCT-15 colon = system: HCT-15 colon
SK-MEL-5 melanoma = system: SK-MEL-5 melanoma
A549 NSCLC = system: A549 NSCLC
NCI-H522 lung = system: NCI-H522 lung
SN12C renal = system: SN12C renal
M14 melanoma = system: M14 melanoma

SMILES: CC[C@]12C=CCN3CC[C@@]4(c5ccc(OC)cc5N(C)[C@H]4[C@@](O)(C(=O)OC)[C@@H]1OC(=O)CCCC[P+](c1ccc(OC)cc1)(c1ccc(OC)cc1)c1ccc(OC)cc1)[C@@H]32
- GI50 (SK-OV-3 ovarian): 1.4 µM
- TGI (SK-OV-3 ovarian): 4.52 µM
- GI50 (RXF 393 renal): 0.524 µM
- TGI (RXF 393 renal): 2.04 µM
- GI50 (SF-539 CNS): 1.52 µM
- TGI (SF-539 CNS): 5.44 µM
- GI50 (PC-3 prostate): 0.562 µM
- TGI (PC-3 prostate): 5.9 µM
- GI50 (ACHN renal): 6.28 µM
- TGI (ACHN renal): 19.7 µM
- GI50 (HL-60(TB) leukemia): 0.234 µM
- TGI (HL-60(TB) leukemia): 0.674 µM
- GI50 (MDA-MB-435): 0.521 µM
- TGI (MDA-MB-435): 1.83 µM
- GI50 (DU-145 prostate): 1.6 µM
- TGI (DU-145 prostate): 12.3 µM
- GI50 (RPMI-8226 leukemia): 0.299 µM
- TGI (RPMI-8226 leukemia): 0.969 µM
- GI50 (TK-10 renal): 1.67 µM
- TGI (TK-10 renal): 3.8 µM
- GI50 (NCI-H23 lung): 1.19 µM
- TGI (NCI-H23 lung): 4.74 µM
- GI50 (MOLT-4 leukemia): 1.18 µM
- TGI (MOLT-4 leukemia): 3.21 µM
- GI50 (HCT-116 colon): 1.3 µM
- TGI (HCT-116 colon): 7.76 µM
- GI50 (A498 renal): 2.93 µM
- TGI (A498 renal): 11.4 µM
- GI50 (HS 578T breast): 1.51 µM
- TGI (HS 578T breast): 4.99 µM
- GI50 (BT-549 breast): 1.25 µM
- TGI (BT-549 breast): 2.6 µM
- GI50 (UACC-62 melanoma): 0.963 µM
- TGI (UACC-62 melanoma): 2.2 µM
- GI50 (T-47D breast): 0.383 µM
- TGI (T-47D breast): 2.83 µM
- GI50 (K-562 leukemia): 0.675 µM
- TGI (K-562 leukemia): 2.53 µM
- GI50 (NCI-H460 lung): 1.15 µM
- TGI (NCI-H460 lung): 11.2 µM
- GI50 (IGROV1 ovarian): 0.548 µM
- TGI (IGROV1 ovarian): 1.86 µM
- GI50 (NCI/ADR-RES ovarian): 20.5 µM
- TGI (NCI/ADR-RES ovarian): 55.9 µM
- GI50 (MALME-3M melanoma): 1.13 µM
- TGI (MALME-3M melanoma): 2.41 µM
- GI50 (SNB-19 CNS): 0.484 µM
- TGI (SNB-19 CNS): 1.95 µM
- GI50 (SF-268 CNS): 1.47 µM
- TGI (SF-268 CNS): 3.49 µM
- GI50 (SR leukemia): 0.428 µM
- TGI (SR leukemia): 1.7 µM
- GI50 (HOP-62 NSCLC): 2.42 µM
- TGI (HOP-62 NSCLC): 7.12 µM
- GI50 (OVCAR-3 ovarian): 0.634 µM
- TGI (OVCAR-3 ovarian): 2.33 µM
- GI50 (OVCAR-4 ovarian): 1.57 µM
- TGI (OVCAR-4 ovarian): 11.6 µM
- GI50 (HCC-2998 colon): 0.617 µM
- TGI (HCC-2998 colon): 1.85 µM
- GI50 (HT29 colon): 0.511 µM
- TGI (HT29 colon): 2.02 µM
- GI50 (KM12 colon): 0.675 µM
- TGI (KM12 colon): 1.99 µM
- GI50 (U251 CNS): 0.392 µM
- TGI (U251 CNS): 1.45 µM
- GI50 (786-0 renal): 2.59 µM
- TGI (786-0 renal): 8.04 µM
- GI50 (MDA-MB-468 breast): 0.264 µM
- TGI (MDA-MB-468 breast): 0.799 µM
- GI50 (SF-295 CNS): 1.97 µM
- TGI (SF-295 CNS): 5.44 µM
- GI50 (OVCAR-8 ovarian): 1.99 µM
- TGI (OVCAR-8 ovarian): 9.6 µM
- GI50 (LOX IMVI melanoma): 1.11 µM
- TGI (LOX IMVI melanoma): 2.35 µM
- GI50 (MCF7 breast): 0.105 µM
- TGI (MCF7 breast): 0.225 µM
- GI50 (SW-620 colon): 1.06 µM
- TGI (SW-620 colon): 6.43 µM
- GI50 (UACC-257 melanoma): 0.792 µM
- TGI (UACC-257 melanoma): 2.31 µM
- GI50 (HOP-92 NSCLC): 0.52 µM
- TGI (HOP-92 NSCLC): 2.64 µM
- GI50 (CAKI-1 renal): 15.2 µM
- TGI (CAKI-1 renal): 29.8 µM
- GI50 (COLO 205 colon): 0.214 µM
- TGI (COLO 205 colon): 0.45 µM
- GI50 (NCI-H226 lung): 2.03 µM
- TGI (NCI-H226 lung): 7.49 µM
- GI50 (OVCAR-5 ovarian): 2.13 µM
- TGI (OVCAR-5 ovarian): 7.15 µM
- GI50 (SK-MEL-28 melanoma): 0.486 µM
- TGI (SK-MEL-28 melanoma): 1.73 µM
- GI50 (HCT-15 colon): 8.79 µM
- TGI (HCT-15 colon): 22.3 µM
- GI50 (SK-MEL-5 melanoma): 1.6 µM
- TGI (SK-MEL-5 melanoma): 2.95 µM
- GI50 (A549 NSCLC): 1.65 µM
- TGI (A549 NSCLC): 11.5 µM
- GI50 (NCI-H522 lung): 0.341 µM
- TGI (NCI-H522 lung): 1.25 µM
- GI50 (SN12C renal): 1.18 µM
- TGI (SN12C renal): 3.07 µM
- GI50 (M14 melanoma): 1.2 µM
- TGI (M14 melanoma): 2.74 µM
